These results are taken from patent publication US4894392A, “Aminoalkyl naphthalenediols as host resistance enhancers” (priority 1988, dated 1990).

Structures are written as SMILES. Where a name gives a salt, the structure may show the parent alone.

In one assay the test system is Pseudomonas aeruginosa. The experiment in a line: In vivo immunopotentiation against challenge with lethal doses of Pseudomonas aeruginosa (cyclophosphamide-immunocompromised mouse model). The settings on record: CY 250 mg/kg i.p. 4 days before P. aeruginosa challenge; test compound injected once, 2 hours after CY. On the set-up: species or system random outbred albino CF1 female mice. Here is the method: An immunocompromised mouse model, established by intraperitoneal treatment of random outbred albino CF1 female mice (ca. 25 g) with 250 mg/kg body weight of cyclophosphamide (CY) 4 days prior to bacterial challenge with Pseudomonas aeruginosa, was used as the assay system. In this model, test compounds were injected only once (2 hours) after CY treatment. After bacterial challenge, LD50 's (50% lethal doses) were determined. Increased LD50 's in treated mice over controls indicated a return to normality. The LD50 for untreated or vehicle-treated mice was routinely 10^6 -10^7 colony forming units (CFU) of P. aeruginosa organisms. After CY treatment, the LD50 was reduced to 10^1 to 10^2 CFU's. The protection afforded by test compound (Protective Index) was determined by calculating the number of LD50 's of protection of treated animals over the LD50 of CY controls.
Turning to `CC1CCCC(NCc2ccc3c(CNC4CCCC(C)C4)c(O)ccc3c2O)C1` (mixture of isomers) [Example 6, 1,6-Dihydroxy-2,5-bis-(3-methylcyclohexylaminomethyl)-naphthalene dihydrochloride (mixture of isomers)], the “Relative No. LD50's (Protective Index: number of LD50's of protection of treated animals over the LD50 of CY controls)” value was 151. Still for that read-out and setting: under `C[C@H]1CC[C@H](NCc2ccc3c(CN[C@H]4CC[C@H](C)CC4)c(O)ccc3c2O)CC1.Cl.Cl` [Example 7, 1,6-Dihydroxy-2,5-bis-(trans-4-methylcyclohexylaminomethyl)-naphthalene dihydrochloride] stands 1000; under `Cl.Cl.Oc1ccc2c(O)c(CNCC3CCCCC3)ccc2c1CNCC1CCCCC1` [Example 2, 1,6-Dihydroxy-2,5-bis-(cyclohexylmethylaminomethyl)-naphthalene dihydrochloride], 320; under `CC1CCCCC1NCc1ccc2c(CNC3CCCCC3C)c(O)ccc2c1O` (mixture of isomers) [Example 5, 1,6-Dihydroxy-2,5-bis-(2-methylcyclohexylaminomethyl)-naphthalene dihydrochloride (mixture of isomers)], 133. `CC(C)(C)C1CCC(NCc2ccc3c(CNC4CCC(C(C)(C)C)CC4)c(O)ccc3c2O)CC1.Cl.Cl` (single isomer, unassigned) [Example 4, 1,6-Dihydroxy-2,5-bis-(4-tert-butylcyclohexylaminomethyl)-naphthalene dihydrochloride (single isomer)]: the “Relative No. LD50's (Protective Index: number of LD50's of protection of treated animals over the LD50 of CY controls)” value is on record as 1000.

Take `CC(C)(C)C1CCC(NCc2ccc3c(CNC4CCC(C(C)(C)C)CC4)c(O)ccc3c2O)CC1` (mixture of isomers) [Example 3, 1,6-Dihydroxy-2,5-bis-(4-tert-butylcyclohexylaminomethyl)-naphthalene dihydrochloride (mixture of isomers)]: the “Relative No. LD50's (Protective Index: number of LD50's of protection of treated animals over the LD50 of CY controls)” value is given as 2128.

The same assay, now with this note: cyclophosphamide-immune compromised mouse, P. aeruginosa lethal challenge.
For `CC(C)(C)C1CCC(NCc2ccc3c(CNC4CCC(C(C)(C)C)CC4)c(O)ccc3c2O)CC1.Cl.Cl` (single isomer, unassigned) [Example 4, 1,6-Dihydroxy-2,5-bis-(4-tert-butylcyclohexylaminomethyl)-naphthalene dihydrochloride (single isomer)], the “LD50 raised over untreated controls” value worked out at 1000 fold.
